# Patent US20250051282A1, “COMPOUNDS FOR TREATING POLYQ-RELATED NEURODEGENERATIVE DISORDERS” (HANGZHOU JIJING PHARMACEUTICAL TECHNOLOGY LIMITED, priority 2021, published 2025)
# System: ATXN1(60Q)
# Assay: Daoy-ATXN1(60Q)-mATXN1 MSD assay (CTG normalized)
# Type: cell-based
# Conditions: Daoy-Flag-ATXN1(60Q) stable cells, compound added Day 2, lysis Day 3, final DMSO 0.3%, read-out: Daoy-ATXN1(60Q)-mATXN1 MSD (CTG normalized) DC50
# Method: Protocol for MSD Assay: Daoy-ATXN1(600)-mATXN1 MSD (CTG normalized)
# The Flag-ATXN1(60Q) gene is synthesized by Genescript and cloned into the pLVX-IRES-Puro vector (Takarabio, catalog No. 632183) using EcoRI/BamHI restriction enzyme sites. Lentivirus is made by transfecting HEK293T cells with pLVX-IRES-Puro-Flag-ATXN1(60Q) plasmids and packaging plasmids psPAX2 and pMD2.G at 4:3:1 ratio (8:6:[…], respectively) in 10 cm plates, and are harvested at 48 hours post transfection. Daoy cells (ATCC catalog No. HTB-186) seeded in T25 flasks are infected with the lentivirus in the presence of 8 µg/mL polybrene (Sigma, TR-1003-G) for 24 hours. 48 hours post infection, the cells are selected using 0.5 […] (Sigma, P8833) for more than 5 days until all cells in the uninfected group die. The expression of Flag-ATXN1(60Q) is verified by anti-Flag immunoblot using anti-Flag antibody (Sigma, F1804-200UG, M2).
# As explained above, Daoy-Flag-ATXN1(60Q) cells are prepared as a stable cell line by infecting Daoy cells with lentivirus. The media for the cells is EMEM (ATTC, 30-2008) with 10% fetal bovin serum (FBS).
# On Day 1, the Daoy-Flag-ATXN1(60Q) cells are seeded in a 96 well plate at a concentration of 1.2×10^4/well. On Day 2, the cells are treated with test compounds at test concentrations (compounds are serially diluted with DMSO to obtain test concentrations, such that final DMSO concentration is 0.3%). On Day 3, the cells are washed with 100 μL of phosphate-buffered saline (PBS) per well, and then 30 μL of radioimmuno-precipitation assay (RIPA) buffer (with protease and phosphatase inhibitor cocktail) is added to each well.
# The well plate is then cooled on ice for 30 minutes in order to complete lysis, and MSD samples are prepared using 10 μL of Daoy-Flag-ATXN1-60Q lysate and 90 μL of RIPA buffer with gentle mixing. Each MSD sample has a total volume of 100 μL, and is used immediately or stored at −80° C.
# A standard Meso Scale Discovery (MSD) plate is coated with anti-Flag (Sigma, F1804-200UG, M2) in PBS at 1:500 dilution ratio and 40 µL/well, and is incubated at 4° C. overnight with shaking at 600 rpm. Then, the MSD plate is washed 3 times with 150 µL/well of 1X TBST (tris-buffered saline (TBS) with Tween 20) buffer, and the MSD plate is blocked with 150 μL of blocking buffer [3% Blocker A in 1X TBST, (3 g Blocker A per 100 mL 1X TBST)] and shaken for 1 hour at 600 rpm at room temperature. Then, the MSD plate is washed three times with 150 μL/well of 1X TBST. Next, the diluted lysate samples (from Sample Preparation above) are added to the MSD plate at 25 μL/well, and the MSD plate is shaken at 600 rpm for 1 hour at room temperature. Then the MSD plate is washed 3 times with 150 μL/well of 1X TBST.
# Detection antibody anti-Ataxin 1 (G-bio, ITA1916) (1:500), which is prepared in antibody detection buffer (1% Blocker A in 1X TBST), is then added to the MSD plate at 25 µL/well, and the MSD plate is shaken at 600 rpm for 1 hour at room temperature. The MSD plate is then washed three times with 150 μL/well of 1X TBST. Next, a secondary detection antibody, Goat anti-rabit (GAR) with SULFO-TAG (1:500), which is prepared in antibody detection buffer (1% Blocker A in 1X TBST), is added at 25 μL/well and the MSD plate is shaken at 600 rpm for 1 hour at room temperature. Then the MSD plate is washed 3 times with 150 μL/well of 1X TBST, and 2X MSD reading buffer is added at 150 μL/well (diluted from 4x MSD reading buffer with water). Finally, the signal from each well is measured on the MSD Meso QuickPle SQ120 Plate Reader. DC50 data is calculated using collaborate drug discovery (CDD) software (https://www.collaborativedrug.com/about).
row,Structure (SMILES),DC50
1,"O=C1Nc2ccc(Br)cc2/C1=C(/Nc1c[nH]cn1)c1cccc(O)c1 [Example 17, (Z)-3-(((1H-imidazol-4-yl)amino)(3-hydroxyphenyl)methylene)-5-bromoindolin-2-one]",< 10 µM
2,"O=C1Nc2ccc(Br)cc2/C1=C(/NC1CC1)c1cccc(O)c1 [Example 7, (Z)-5-bromo-3-((cyclopropylamino) (3-hydroxyphenyl)methylene)indolin-2-one]",< 10 µM
3,"O=C1Nc2ccc(Br)cc2/C1=C(/Nc1cncs1)c1ccccc1 [Example 49, (Z)-5-bromo-3-(phenyl(thiazol-5-ylamino)methylene)indolin-2-one]",> 30 µM
4,"O=C1Nc2ccc(Br)cc2/C1=C(/NCCCF)c1cccc(C(F)F)c1 [Example 20, (Z)-5-bromo-3-((3-(difluoromethyl)phenyl)((3-fluoropropyl)amino)methylene) indolin-2-one]",< 10 µM
5,"N/C(=C1\C(=O)Nc2ccc(Br)cc21)c1ccncc1 [Example 77, (Z)-3-(amino (pyridin-4-yl)methylene)-5-bromoindolin-2-one]",< 10 µM
6,"CN/C(=C1\C(=O)Nc2ccc(Br)cc21)c1cccc(O)c1 [Example 1, (Z)-5-bromo-3-((3-hydroxyphenyl) (methylamino)methylene) indolin-2-one]",< 10 µM
7,"NC(=C1C(=O)Nc2ccc(Br)cc21)C1COc2ccccc2O1 (stereo not drawn) [Example 79, 3-(Amino(2,3-dihydrobenzo[b] [1,4]dioxin-2-yl)methylene)-5-bromoindolin-2-one]",> 30 µM
8,"C/C(=C1\C(=O)Nc2ccc(Br)cc21)c1cccc(O)c1 [Example 85, (E)-5-bromo-3-(1-(3-hydroxyphenyl)ethylidene)indolin-2-one]",10 to 30 µM
9,"O=C1Nc2ccc(Br)cc2/C1=C(/NC1CNC1)c1cccc(O)c1 [Example 26, (Z)-3-((azetidin-3-ylamino)(3-hydroxyphenyl)methylene) 5-bromindolin-2-one]",< 10 µM
10,"O=C1Nc2ccc(Br)cc2/C1=C(/Nc1ccc(C(=O)O)cc1)c1cccc(O)c1 [Example 74, (Z)-4-(((5-bromo-2-oxoindolin-3-ylidene)(3-hydroxyphenyl)methyl)amino)benzoic acid]",10 to 30 µM
11,"O=C1Nc2ccc(Br)cc2/C1=C(/Nc1cccnn1)c1cccc(O)c1 [Example 73, (Z)-5-bromo-3-((3-hydroxyphenyl) (pyridazin-3-ylamino)methylene)indolin-2-one]",< 10 µM
12,"O=C1Nc2ccc(Br)cc2/C1=C(/Nc1cccnn1)c1ccccc1 [Example 44, (Z)-5-bromo-3-(phenyl(pyridazin-3-ylamino)methylene) indolin-2-one]",> 30 µM
13,"CC(=O)NCCOCCOCCOCCN/C(=C1\C(=O)Nc2ccc(Br)cc21)c1cccc(O)c1 [Example 61, (Z)—N-(1-(5-bromo-2-oxoindolin-3-ylidene)-1-(3-hydroxyphenyl)-5,8,11-trioxa-2-azatridecan-13-yl)acetamide]",10 to 30 µM
14,"NCCN/C(=C1\C(=O)Nc2ccc(Br)cc21)c1ccc2[nH]c(=O)oc2c1 [Example 57, (Z)-6-(((2-aminoethyl)amino)(5-bromo-2-oxoindolin-3-ylidene)methyl) benzo[d]oxazol-2(3H)-one]",10 to 30 µM
15,"N/C(=C1\C(=O)Nc2ccc(Br)cc21)c1ncccn1 [Example 78, (Z)-3-(amino (pyrimidin-2-yl)methylene)-5-bromoindolin-2-one]",> 30 µM
16,"C/C(=C1\C(=O)Nc2ccc(Br)cc21)c1ccc2[nH]c(=O)oc2c1 [Example 88, (E)-6-(1-(5-bromo-2-oxoindolin-3-ylidene)ethyl)benzo[d]oxazol-2(3H)-one]",> 30 µM
17,"C/C(=C1\C(=O)Nc2ccc(Br)cc21)c1ccc(F)c(O)c1 [Example 92, (E)-5-bromo-3-(1-(4-fluoro-3-hydroxyphenyl)ethylidene) indolin-2-one]",< 10 µM
18,"O=C1Nc2ccc(Br)cc2/C1=C(/Nc1cncnc1)c1cccc(O)c1 [Example 69, (Z)-5-bromo-3-((3-hydroxyphenyl) (pyrimidin-5-ylamino)methylene)indolin-2-one]",< 10 µM
